Reference: patent publication US8710045B2, “Agents for preventing and treating disorders involving modulation of the ryanodine receptors” (The Trustees of Columbia University in the City of New York, priority 2004, dated 2014)
Several values for one entry are separate records, joined by “and”; a condition that tells them apart may be missing. Identical values can stand only once.

Experiments:
PKA-phosphorylated RyR2 = molecular target: T1, PKA-phosphorylated RyR2 (Homo sapiens, UniProt Q92736); test: FKBP12.6 rebinding assay: FKBP12.6 binding to PKA-phosphorylated RyR2 in cardiac SR; conditions: compound 0.5-1000 nM; Michaelis-Menten curve fitting
T1 construct: from tissue
Experimental: Samples are centrifuged at 95,000 g for 10 min and the pellets are washed three times in 0.2 ml imidazole buffer. The final pellets are pooled and resuspended in imidazole buffer (final concentration≈10 μg/μl). […] Samples then are centrifuged at 100,000 g for 10 minutes and pellets washed 3 times with imidizol buffer. […] Immunoblots are developed using an anti-FKBP antibody (1:3,000 dilution). […] The intracellular solution contains (in mM): CsCl, 60; CaCl2, 1; EGTA, 11; MgCl2, 1; K2ATP, 5; HEPES, 10; aspartic acid, 50; pH 7.4 (CsOH). Under these conditions, it is expected that the measured current was carried by Ba^2+ primarily through L-type calcium channels which is referred to as ICa,L. Drugs are applied by a local solution changer and reach the cell membrane within 1 s.
The FKBP12.6 rebinding assay described above is used to determine the amount of FKBP12.6 binding to PKA-phosphorylated RyR2 at various concentrations (0.5-1000 nM) of the compounds shown. EC50 values are calculated using Michaelis-Menten curve fitting.
The EC50 values are calculated using Michaelis-Menten curve fitting.

hERG current = hERG current (Homo sapiens, UniProt Q12809); test: hERG current, PatchXpress 7000A automatic parallel patch clamp in hERG-transfected HEK 293 cells (Example 6); conditions: for Individual Data (% Inhibition): single cell; for hERG current inhibition at the highest concentration tested: highest concentration tested (10 μM)
Chain of hERG current (Q12809 whole entry): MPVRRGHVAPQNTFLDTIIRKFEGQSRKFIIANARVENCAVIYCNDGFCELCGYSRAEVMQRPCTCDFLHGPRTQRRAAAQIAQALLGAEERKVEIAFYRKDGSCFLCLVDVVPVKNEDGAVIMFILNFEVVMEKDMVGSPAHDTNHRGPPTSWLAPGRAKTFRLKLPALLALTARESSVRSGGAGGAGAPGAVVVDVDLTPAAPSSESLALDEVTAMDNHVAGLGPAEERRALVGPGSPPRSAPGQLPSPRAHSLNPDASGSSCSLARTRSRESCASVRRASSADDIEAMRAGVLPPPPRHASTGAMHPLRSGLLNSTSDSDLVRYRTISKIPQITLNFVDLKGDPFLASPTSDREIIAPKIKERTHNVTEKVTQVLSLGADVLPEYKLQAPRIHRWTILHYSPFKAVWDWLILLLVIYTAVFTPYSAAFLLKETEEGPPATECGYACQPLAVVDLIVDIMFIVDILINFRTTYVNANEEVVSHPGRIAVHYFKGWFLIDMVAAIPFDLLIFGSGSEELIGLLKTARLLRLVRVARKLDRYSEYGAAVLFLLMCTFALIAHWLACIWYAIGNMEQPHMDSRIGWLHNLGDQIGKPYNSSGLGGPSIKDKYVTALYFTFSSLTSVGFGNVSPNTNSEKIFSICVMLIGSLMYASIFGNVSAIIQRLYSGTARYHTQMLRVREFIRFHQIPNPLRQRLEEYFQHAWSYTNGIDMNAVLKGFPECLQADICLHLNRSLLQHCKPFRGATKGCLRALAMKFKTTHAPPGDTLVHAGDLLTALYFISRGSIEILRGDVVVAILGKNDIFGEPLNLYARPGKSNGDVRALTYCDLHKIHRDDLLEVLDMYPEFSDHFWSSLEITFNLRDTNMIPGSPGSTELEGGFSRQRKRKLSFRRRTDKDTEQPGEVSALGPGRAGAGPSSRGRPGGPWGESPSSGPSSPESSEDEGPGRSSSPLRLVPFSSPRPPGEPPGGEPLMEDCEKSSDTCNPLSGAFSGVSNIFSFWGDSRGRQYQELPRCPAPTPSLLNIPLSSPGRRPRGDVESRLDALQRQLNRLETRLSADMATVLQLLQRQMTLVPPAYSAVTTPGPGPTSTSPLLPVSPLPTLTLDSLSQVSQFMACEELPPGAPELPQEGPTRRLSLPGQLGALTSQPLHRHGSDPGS
Experimental: (§1) HEK293 cells were transfected with a plasmid containing the hERG cDNA and a neomycin resistance gene. Stable transfectants were selected by culturing the cells in the presence of G418. The selection pressure was maintained by continued culture in the presence of G418. […] Cells for use in electrophysiology were cultured in 35 mm dishes.
(§2) Onset and steady state block of hERG current was measured using a pulse pattern with fixed amplitudes (conditioning prepulse: +20 mV for 2 seconds; test pulse: −50 mV for 2 seconds) repeated at 10 second intervals, from a holding potential of −80 mV. Peak tail current was measured during the 2 second step to −50 mV. A steady state was maintained for at least 30 seconds before applying the test compound or the positive control. Peak tail current was monitored until a new steady state was achieved. Test compound concentrations were applied cumulatively in ascending order without washout between applications.
(§3) Data acquisition and analysis was performed using the suite of pCLAMP (Vre. 8.2) programs (Axon Instruments, Union City, Calif.). Steady state was defined by the limiting constant rate of change with time (linear time dependence). The steady state before and after application of the test or control compounds was used to calculate the percentage of current inhibited at each concentration. […] Nonlinear squares fits were solved with the Solver add-in for Excel 2000 (Microsoft, Redmond, Wash.).
(§4) Multiple compounds of the invention were tested for their effects on hERG currents. The compounds tested were: ARM036-Na, ARM047, ARM048, ARM050, ARM057, ARM064, ARM074, ARM075, ARM076, ARM077, ARM101, ARM102, ARM103, ARM104, ARM106, ARM107 and ARM26. […] Electrophysiological recordings were made using the PatchXpress 7000 A (Molecular Devices) automatic parallel patch clamp system. […] The duration of exposure to each test concentration was 5 minutes.

hERG = hERG (Homo sapiens, UniProt Q12809); test: as above; conditions: human, HEK 293 cells stably transfected with hERG cDNA
Chain of hERG (Q12809 whole entry): as above
Experimental: as §1, §2, §3, §4

[1] = Individual Data (% Inhibition), single cell

## COc1ccc2c(c1)CN(C(=O)N1CCN(Cc3ccc4c(c3)OCO4)CC1)CCS2 [S47]
PKA-phosphorylated RyR2
  EC50: 0.02 µM
hERG current
  IC50: 2.5 µM
hERG current; 0.01 μM
  Mean % hERG Inhibition: 2.7%
hERG current; 0.01 μM, listed as ARM047, 0.01 µM
  Individual Data (% Inhibition): 1.7% and 3.7%
hERG current; 0.1 μM
  Mean % hERG Inhibition: 9.7%
hERG current; 0.1 μM, listed as ARM047, 0.1 µM
  Individual Data (% Inhibition): 6.5% and 12.9%
hERG current; 1 μM
  Mean % hERG Inhibition: 29.6%
hERG current; 1 μM, listed as ARM047, 1 µM
  Individual Data (% Inhibition): 30.8% and 20.4% and 37.5%
hERG current; 10 μM
  Mean % hERG Inhibition: 78.0%
hERG current; 10 μM, listed as ARM047, 10 µM
  Individual Data (% Inhibition): 82.1% and 75.9%

## COc1ccc2c(c1)CN(C(=O)NCc1ccccc1)CCS2 [S49]
PKA-phosphorylated RyR2
  EC50: 0.081 µM

## COc1ccc2c(c1)CN(C(=O)N1CCCCC1)CCS2 [S50]
PKA-phosphorylated RyR2
  EC50: 0.04 µM
hERG current; 0.01 μM
  Mean % hERG Inhibition: 1.8%
hERG current; 0.01 μM, listed as ARM050, 0.01 µM
  Individual Data (% Inhibition): 1.1% and 2.4%
hERG current; 0.1 μM
  Mean % hERG Inhibition: 3.7%
hERG current; 0.1 μM, listed as ARM050, 0.1 µM
  Individual Data (% Inhibition): 2.7% and 4.7%
hERG current; 1 μM
  Mean % hERG Inhibition: 6.1%
hERG current; 1 μM, listed as ARM050, 1 µM
  Individual Data (% Inhibition): 7.1% and 5.1%
hERG current; 10 μM
  Mean % hERG Inhibition: 24.2%
hERG current; 10 μM, listed as ARM050, 10 µM
  Individual Data (% Inhibition): 27.0% and 21.3%
hERG current
  hERG current inhibition at the highest concentration tested: less than 50%

## COc1ccc2c(c1)CN(C(=O)NO)CCS2 [S51]
PKA-phosphorylated RyR2
  EC50: 0.175 µM

## COc1ccc2c(c1)CN(C(=O)NCc1ccc3c(c1)CCO3)CCS2 [S52]
PKA-phosphorylated RyR2
  EC50: 0.143 µM

## COc1ccc2c(c1)CN(C(=O)N1CCN(c3ccccc3)CC1)CCS2 [S53]
PKA-phosphorylated RyR2
  EC50: 0.2 µM

## COc1ccc2c(c1)CN(S(=O)(=O)Nc1cccnc1)CCS2 [S54]
PKA-phosphorylated RyR2
  EC50: 0.077 µM

## COc1ccc2c(c1)CN(C(=O)CCN1CCCCC1c1nnc(Cc3ccccc3)o1)CCS2 (stereo not shown) [S55]
PKA-phosphorylated RyR2
  EC50: 0.111 µM

## COc1ccc2c(c1)CN(C(=O)CCN1CCCC[C@H]1c1nnc(Cc3ccccc3)o1)CCS2 [S56]
PKA-phosphorylated RyR2
  EC50: 0.095 µM

## COC(=O)C(=O)N1CCSc2ccc(OC)cc2C1 [S57]
PKA-phosphorylated RyR2
  EC50: 0.073 µM
hERG current; 0.01 μM
  Mean % hERG Inhibition: 0.2%
hERG current; 0.01 μM, listed as ARM057, 0.01 µM
  Individual Data (% Inhibition): 0.3% and 0.0%
hERG current; 0.1 μM
  Mean % hERG Inhibition: 7.3%
hERG current; 0.1 μM, listed as ARM057, 0.1 µM
  Individual Data (% Inhibition): 4.1% and 10.4%
hERG current; 1 μM
  Mean % hERG Inhibition: 2.7%
hERG current; 1 μM, listed as ARM057, 1 µM
  Individual Data (% Inhibition): 5.3% and 0.1%
hERG current; 10 μM
  Mean % hERG Inhibition: 13.6%
hERG current; 10 μM, listed as ARM057, 10 µM
  Individual Data (% Inhibition): 18.3% and 8.8%
hERG current
  hERG current inhibition at the highest concentration tested: less than 50%

## COc1ccc2c(c1)CN(C(=O)CCN1CCCCC1)CCS2 [S58]
PKA-phosphorylated RyR2
  EC50: 0.055 µM

## CCN(CC)C(=O)C(=O)N1CCSc2ccc(OC)cc2C1 [S59]
PKA-phosphorylated RyR2
  EC50: 0.102 µM

## COc1ccc2c(c1)CN(C(=O)CCN1CCC(Cc3ccc(N)cc3)CC1)CCS2 [S60]
PKA-phosphorylated RyR2
  EC50: 0.068 µM

## COc1ccc2c(c1)CN(C(=O)CCN1CCC(Cc3ccc(N)cc3N)CC1)CCS2 [S61]
PKA-phosphorylated RyR2
  EC50: 0.095 µM

## COc1ccc2c(c1)CN(C(=O)CCN1CCC(Cc3ccc(N=[N+]=[N-])cc3)CC1)CCS2 [S62]
PKA-phosphorylated RyR2
  EC50: 0.045 µM

## COc1ccc2c(c1)CN(C(=O)CCN1CCC(Cc3ccc(N=[N+]=[N-])cc3N=[N+]=[N-])CC1)CCS2 [S63]
PKA-phosphorylated RyR2
  EC50: 0.052 µM

## COc1ccc2c(c1)CN(C(=O)NCCc1ccc(O)c(O)c1)CCS2 [S66]
PKA-phosphorylated RyR2
  EC50: 0.11 µM

## COc1ccc2c(c1)CN(C(=O)NCCc1cnc[nH]1)CCS2 [S67]
PKA-phosphorylated RyR2
  EC50: 0.089 µM

## c1ccc2c(c1)CNCCS2 [S68]
PKA-phosphorylated RyR2
  EC50: ~0.1 µM

## O=C(NO)N1CCSc2ccccc2C1 [S74]
PKA-phosphorylated RyR2
  EC50: 0.22 µM
hERG current; 0.01 μM
  Mean % hERG Inhibition: 1.9%
hERG current; 0.01 μM, listed as ARM074, 0.01 µM
  Individual Data (% Inhibition): 0.8% and 3.0%
hERG current; 0.1 μM
  Mean % hERG Inhibition: 4.8%
hERG current; 0.1 μM, listed as ARM074, 0.1 µM
  Individual Data (% Inhibition): 5.9% and 3.7%
hERG current; 1 μM
  Mean % hERG Inhibition: 1.3%
hERG current; 1 μM, listed as ARM074, 1 µM
  Individual Data (% Inhibition): 0.2% and 2.4% and 5.6%
hERG current; 10 μM
  Mean % hERG Inhibition: 9.5%
hERG current; 10 μM, listed as ARM074, 10 µM
  Individual Data (% Inhibition): 9.3% and 9.6% and 14.0%

## O=C(N1CCNCC1)N1CCSc2ccccc2C1 [S103]
hERG current; 0.01 μM, listed as ARM103, 0.01 µM
  Individual Data (% Inhibition): 12.1% and 1.5%
hERG current; 0.1 μM, listed as ARM103, 0.1 µM
  Individual Data (% Inhibition): 2.4%
hERG current; 1 μM, listed as ARM103, 1 µM
  Individual Data (% Inhibition): 9.6%
hERG current; 10 μM, listed as ARM103, 10 µM
  Individual Data (% Inhibition): 29.9%
hERG; [1]
  inhibition at 5 min, 0.1 µM: 4.2%
  inhibition at 5 min, 1 µM: 5%
hERG; Individual Data (% Inhibition), 10 μM, single cell
  inhibition at 5 min, 10 µM: 28.4%
hERG; Mean % hERG Inhibition, 0.01 μM
  inhibition at 5 min, 0.01 µM: 6.8%
hERG; Mean % hERG Inhibition
  inhibition at 5 min, 0.1 µM: 3.3%
  inhibition at 5 min, 1 µM: 7.3%
hERG; Mean % hERG Inhibition, 10 μM
  inhibition at 5 min, 10 µM: 29.2%
hERG; hERG current inhibition at the highest concentration tested, highest concentration tested (10 μM)
  inhibition at 5 min, 10 µM: < 50%
